The test system of experiment [1] is DOHH2 cells. As to the kind of experiment: Cell proliferation assay (MTS), DOHH2 cells, 120 h. Format: cell-based. Particulars: Homo sapiens, DOHH-2, 120 h. The essentials:
(§1)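 Treatment lasts 72 h for RS4;11 and 120 h for DOHH2 cells seeded at 5000 per well in serum-containing RPMI-1640. A 2 h MTS step, halted with 10% SDS, precedes dual-wavelength absorbance reading and IC50 fitting.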

The test system of experiment [2] is RS4;11 cells. As to the kind of experiment: Cell proliferation assay (MTS), RS4;11 cells, 72 h. In kind it is cell-based. Conditions: Homo sapiens, RS4-11, 72 h. The essentials: as §1

SMILES strings stand for the structures.

Among the data in patent US11091478B2 (Fochon Pharmaceuticals, Ltd., priority 2017, dated 2021) are IC50 values, retold here.

For `CC1(C)CCC(CN2CCN(c3ccc(C(=O)NS(=O)(=O)c4cc5c(c([N+](=O)[O-])c4)N[C@@H](C4CCN(S(C)(=O)=O)CC4)CO5)c(Oc4cnc5[nH]ccc5c4)c3)CC2)=C(c2ccc(Cl)cc2)C1` [Example 2-232, (S)-2-((1H-pyrrolo[2,3-b]pyridin-5-yl)oxy)-4-(4-((4′-chloro-5,5-dimethyl-3,4,5,6-tetra-hydro-[1,1′-biphenyl]-2-yl)methyl)piperazin-1-yl)-N-((3-(1-(methyslulfonyl)piperidin-4-yl)-5-nitro-3,4-dihydro-2H-benzo[b][1,4]oxazin-7-yl)sulfonyl)benzamide], the IC50 (commonly the midpoint of a concentration-inhibition curve) in experiment [1] came out at 1 nM; in experiment [2], 6 nM.
Consider `CC1(C)CCC(CN2CCN(c3ccc(C(=O)NS(=O)(=O)c4cc5c(c([N+](=O)[O-])c4)N[C@@H](CN4C[C@H]6C[C@@H]4CO6)CO5)c(Oc4cnc5[nH]ccc5c4)c3)CC2)=C(c2ccc(Cl)cc2)C1` [Example 2-88, 2-((1H-pyrrolo[2,3-b]pyridin-5-yl)oxy)-N-(((S)-3-(((1R,4R)-2-oxa-5-azabicyclo[2.2.1]heptan-5-yl)methyl)-5-nitro-3,4-dihydro-2H-benzo[b][1,4]oxazin-7-yl)sulfonyl)-4-(4-((4′-chloro-5,5-dimethyl-3,4,5,6-tetrahydro-[1,1′-biphenyl]-2-yl)methyl)piperazin-1-yl) benzamide], for which the half-inhibitory concentration (IC50) in experiment [1] worked out at 14 nM; in experiment [2], 2 nM.
The like results for `CN(C)C(=O)C[C@@H]1Cc2cc(S(=O)(=O)NC(=O)c3ccc(N4CCN(CC5=C(c6ccc(Cl)cc6)CC(C)(C)CC5)CC4)cc3Oc3cnc4[nH]ccc4c3)cc([N+](=O)[O-])c2N1` [Example 1-23, (S)-2-((1H-pyrrolo[2,3-b]pyridin-5-yl)oxy)-4-(4-((4′-chloro-5,5-dimethyl-3,4,5,6-tetra-hydro-[1,1′-biphenyl]-2-yl)methyl)piperazin-1-yl)-N-((2-(2-(dimethylamino)-2-oxoeth-yl)-7-nitroindolin-5-yl)sulfonyl)benzamide] were, in that order, 57 nM and 20 nM.
The matching figures for `C[C@H]1CNc2c(cc(S(=O)(=O)NC(=O)c3ccc(N4CCN(CC5=C(c6ccc(Cl)cc6)CC(C)(C)CC5)CC4)cc3Oc3cnc4[nH]ccc4c3)cc2[N+](=O)[O-])O1` [Example 2-105, (S)-2-((1H-pyrrolo[2,3-b]pyridin-5-yl)oxy)-4-(4-((4′-chloro-5,5-dimethyl-3,4,5,6-tetra-hydro-[1,1′-biphenyl]-2-yl)methyl)piperazin-1-yl)-N-((2-methyl-5-nitro-3,4-dihydro-2H-benzo[b][1,4]oxazin-7-yl)sulfonyl)benza-mide]: 51 nM and 35 nM.
Regarding `CS(=O)OCC[C@H]1CSc2cc(S(=O)(=O)NC(=O)c3ccc(N4CCN(CC5=C(c6ccc(Cl)cc6)CC(C)(C)CC5)CC4)cc3Oc3cnc4[nH]ccc4c3)cc([N+](=O)[O-])c2N1` (stereo partly drawn) [Example 3-17, 2-((S)-7-(N-(2-((1H-pyrrolo[2,3-b]pyridin-5-yl)oxy)-4-(4-((4′-chloro-5,5-dimethyl-3,4,5,6-tetrahydro-[1,1′-biphenyl]-2-yl)methyl)piperazin-1-yl)benzoyl)sulfamoyl)-5-nitro-3,4-dihydro-2H-benzo[b][1,4]thiazin-3-yl) ethyl methanesulfinate], the 50% inhibitory concentration (IC50) in experiment [1] stood at 49 nM; in experiment [2], 19 nM.
Regarding `CC(=O)N1CCN(C[C@H]2COc3cc(S(=O)(=O)NC(=O)c4ccc(N5CCN(CC6=C(c7ccc(Cl)cc7)CC(C)(C)CC6)CC5)cc4Oc4cnc5[nH]ccc5c4)cc([N+](=O)[O-])c3N2)CC1` [Example 2-96, (S)-2-((1H-pyrrolo[2,3-b]pyridin-5-yl)oxy)-N-((3-((4-acetylpiperazin-1-yl)methyl)-5-nitro-3,4-dihydro-2H-benzo[b][1,4]oxazin-7-yl)sulfonyl)-4-(4-((4′-chloro-5,5-dimethyl-3,4,5,6-tetrahydro-[1,1′-biphenyl]-2-yl)meth-yl)piperazin-1-yl)benzamide], the half-inhibitory concentration (IC50) in experiment [1] turned out to be 85 nM; in experiment [2] it was 72 nM.
As to `CC1(C)CCC(CN2CCN(c3ccc(C(=O)NS(=O)(=O)c4cc5c(c([N+](=O)[O-])c4)N[C@@H](CNC(=O)OC4CCOCC4)CO5)c(Oc4cnc5[nH]ccc5c4)c3)CC2)=C(c2ccc(Cl)cc2)C1` [Example 2-61, tetrahydro-2H-pyran-4-yl (S)-((7-(N-(2-((1H-pyrrolo[2,3-b]pyridin-5-yl)oxy)-4-(4-((4′-chloro-5,5-dimethyl-3,4,5,6-tetrahydro-[1,1′-biphenyl]-2-yl)methyl)piperazin-1-yl)benzoyl)sulfamoyl)-5-nitro-3,4-dihydro-2H-benzo[b][1,4]oxazin-3-yl)methyl)carbamate], the IC50 in experiment [1] was determined as 444 nM; in experiment [2], 48 nM.
The matching figures for `CN1CCN(C[C@H]2COc3cc(S(=O)(=O)NC(=O)c4ccc(N5CCN(CC6=C(c7ccc(Cl)cc7)CC(C)(C)CC6)CC5)cc4Oc4cnc5[nH]ccc5c4)cc([N+](=O)[O-])c3N2)CC1` [Example 2-1, (S)-2-((1H-pyrrolo[2,3-b]pyridin-5-yl)oxy)-4-(4-((4′-chloro-5,5-dimethyl-3,4,5,6-tetrahydro-[1,1′-biphenyl]-2-yl)methyl)piperazin-1-yl)-N-((3-((4-methylpiperazin-1-yl)methyl)-5-nitro-3,4-dihydro-2H-benzo[b][1,4]oxazin-7-yl)sulfonyl)benzamide]: 6 nM and 1 nM.
The matching figures for `CC1(C)CCC(CN2CCN(c3ccc(C(=O)NS(=O)(=O)c4cc5c(c([N+](=O)[O-])c4)N[C@@H](CCN4CCC(C)(O)CC4)CO5)c(Oc4cnc5[nH]ccc5c4)c3)CC2)=C(c2ccc(Cl)cc2)C1` [Example 2-11, (S)-2-((1H-pyrrolo[2,3-b]pyridin-5-yl)oxy)-4-(4-((4′-chloro-5,5-dimethyl-3,4,5,6-tetra-hydro-[1,1′-biphenyl]-2-yl)methyl)piperazin-1-yl)-N-((3-(2-(4-hydroxy-4-methylpiper-idin-1-yl)ethyl)-5-nitro-3,4-dihydro-2H-benzo[b][1,4]oxazin-7-yl)sulfonyl)benzamide]: 53 nM and 12 nM.
The matching figures for `CC1(C)CCC(CN2CCN(c3ccc(C(=O)NS(=O)(=O)c4cc5c(c([N+](=O)[O-])c4)N[C@H](CCO)CO5)c(Oc4cnc5[nH]ccc5c4)c3)CC2)=C(c2ccc(Cl)cc2)C1` [Example 2-17, (R)-2-((1H-pyrrolo[2,3-b]pyridin-5-yl)oxy)-4-(4-((4′-chloro-5,5-dimethyl-3,4,5,6-tetra-hydro-[1,1′-biphenyl]-2-yl)methyl)piperazin-1-yl)-N-((3-(2-hydroxyethyl)-5-nitro-3,4-dihydro-2H-benzo[b][1,4]oxazin-7-yl)sulfo-nyl)benzamide]: 20 nM and 8 nM.
Take `CC1(C)CCC(CN2CCN(c3ccc(C(=O)NS(=O)(=O)c4cc5c(c([N+](=O)[O-])c4)N[C@H](CN4CCOCC4)CS5)c(Oc4cnc5[nH]ccc5c4)c3)CC2)=C(c2ccc(Cl)cc2)C1` [Example 3-3, (R)-2-((1H-pyrrolo[2,3-b]pyridin-5-yl)oxy)-4-(4-((4′-chloro-5,5-dimethyl-3,4,5,6-tetra-hydro-[1,1′-biphenyl]-2-yl)methyl)piperazin-1-yl)-N-((3-(morpholinomethyl)-5-nitro-3,4-dihydro-2H-benzo[b][1,4]thiazin-7-yl)sulfonyl)benzamide]: the values for the 50% inhibitory concentration (IC50) in experiment [1] and in experiment [2] were 58 nM and 35 nM, respectively.
In the case of `CC1(C)CCC(CN2CCN(c3ccc(C(=O)NS(=O)(=O)c4cc5c(c([N+](=O)[O-])c4)N[C@@H](CN4CCOCC4)CN5)c(Oc4cnc5[nH]ccc5c4)c3)CC2)=C(c2ccc(Cl)cc2)C1` [Example 4-4, (R)-2-((1H-pyrrolo[2,3-b]pyridin-5-yl)oxy)-4-(4-((4′-chloro-5,5-dimethyl-3,4,5,6-tetra-hydro-[1,1′-biphenyl]-2-yl)methyl)piperazin-1-yl)-N-((2-(morpholinomethyl)-8-nitro-1,2,3,4-tetrahydroquinoxalin-6-yl)sulfonyl) benzamide], the values for the concentration for half-maximal inhibition (IC50) in experiment [1] and in experiment [2] were 28 nM and 14 nM, respectively.
The like results for `CC1(C)CCC(CN2CCN(c3ccc(C(=O)NS(=O)(=O)c4cc5c(c([N+](=O)[O-])c4)N[C@@H](CS(C)(=O)=O)CO5)c(Oc4cnc5[nH]ccc5c4)c3)CC2)=C(c2ccc(Cl)cc2)C1` [Example 2-147, (R)-2-((1H-pyrrolo[2,3-b]pyridin-5-yl)oxy)-4-(4-((4′-chloro-5,5-dimethyl-3,4,5,6-tetra-hydro-[1,1′-biphenyl]-2-yl)methyl)piperazin-1-yl)-N-((3-((methylsulfonyl)methyl)-5-nitro-3,4-dihdyro-2H-benzo[b][1,4]oxazin-7-yl)sulfonyl)benzamide] were, in that order, 135 nM and 16 nM.
The like results for `CC1(C)CCC(CN2CCN(c3ccc(C(=O)NS(=O)(=O)c4cc5c(c([N+](=O)[O-])c4)N[C@@H](C(=O)N4CCOCC4)CO5)c(Oc4cnc5[nH]ccc5c4)c3)CC2)=C(c2ccc(Cl)cc2)C1` [Example 2-103] were, in that order, 490 nM and 16 nM.
With `CN1CCN(CC[C@@H]2Cc3cc(S(=O)(=O)NC(=O)c4ccc(N5CCN(CC6=C(c7ccc(Cl)cc7)CC(C)(C)CC6)CC5)cc4Oc4cnc5[nH]ccc5c4)cc([N+](=O)[O-])c3N2)CC1` [Example 1-12, (S)-2-((1H-pyrrolo[2,3-b]pyridin-5-yl)oxy)-4-(4-((4′-chloro-5,5-dimethyl-3,4,5,6-tetra-hydro-[1,1′-biphenyl]-2-yl)methyl)piperazin-1-yl)-N-((2-(2-(4-methylpiperazin-1-yl)eth-yl)-7-nitroindolin-5-yl)sulfonyl)benzamide], the half-maximal inhibitory concentration (IC50) in experiment [1] stood at 299 nM; in experiment [2], 58 nM.
Consider `CN1CCN(C(=O)C[C@H]2Cc3cc(S(=O)(=O)NC(=O)c4ccc(N5CCN(CC6=C(c7ccc(Cl)cc7)CC(C)(C)CC6)CC5)cc4Oc4cnc5[nH]ccc5c4)cc([N+](=O)[O-])c3N2)CC1` [Example 1-25], for which the half-inhibitory concentration (IC50) in experiment [1] and in experiment [2] was 6 nM throughout.
